Test results reported in paper PMC11714206, “Massively Parallel Screening of Toll/Interleukin‐1 Receptor (TIR)‐Derived Peptides Reveals Multiple Toll‐Like Receptors (TLRs)‐Targeting Immunomodulatory Peptides” (Advanced Science, 2024).

Target: T1, MyD88^TIR (Homo sapiens, UniProt Q99836)
T1 construct: MyD88 (residues 148–296); 6xHis; made in house; host or cells: E. coli BL21 (DE3)
Experiment: T‐Surf phage library (P8 and P3) selection against MyD88^TIR, four rounds, NGS read counts
Assay type: binding
Conditions: for P3_MyD88 Rank (after) / P3_MyD88 Rank (before): P3 library; for P8_MyD88 Rank (after) / P8_MyD88 Rank (before): P8 library; for Population: 4th round of selection against MyD88 TIR, share of NGS reads
Protocol: T‐Surf libraries were screened against the immobilized TIR domains of two major human TLR adaptor proteins, MAL^TIR and MyD88^TIR, allowing cross‐species selection of TIR‐binding motifs with 190 946 TIR‐derived peptides in a single binding assay (Scheme 1). Enriched phage pools from the fourth round of selection were analyzed using NGS after barcoding the peptide‐coding regions of the phage pools.
Phage display screening was performed by coating two wells of a 96‐well plate (Maxisorp, Thermo Fisher Scientific) with 100 µL of 5 µg mL^−1 TIR domains overnight; then, the coated wells were blocked with 200 µL of blocking buffer (0.2% BSA in PBS) and set aside for 1 h at 4 °C with gentle shaking. Next, 100 µL of the phage library was added to the wells and incubated for 1 h at room temperature (RT; 20 – 22 °C) with gentle shaking. The plate was washed four times with PBS containing 0.5% Tween‐20; the bound phages were eluted by adding 100 µL of 100 mM HCl to each well. The elute was neutralized with 10 µL of 1.0 M Tris‐HCl (pH 11.0). E. coli TG1 cells were grown to the log phase (A600 = ≈0.6), and 1 mL of the culture was incubated with 100 µL of the eluted phages for 30 min at 37 °C, with shaking at 200 rpm. Next, 1 µL of M13KO7 helper phages was added, followed by incubation for 45 min at 37 °C, with shaking. Subsequently, the cells were transferred to 25 mL of 2× yeast extract tryptone/carbenicillin/kanamycin medium and incubated overnight at 37 °C with shaking at 200 rpm. The amplified phages were precipitated with 20% PEG‐8000/2.5 M NaCl to be used for the next round of selection.
The naïve T‐Surf libraries in P8 and P3 and the enriched phage pools after four rounds were barcoded for NGS as previously described.^[ [59] ^] Briefly, 5 µL of the phage pool was used as a template for 20 cycles of a 50 µL PCR reaction using […] each of forward and reverse barcoded primers and PrimeSTAR Max DNA Polymerase. The PCR products were purified using Expin Gel SV (GeneAll). The NGS samples were quantified using qPCR, following the qPCR Quantification Protocol Guide (KAPA Library Quantification kits for Illumina Sequencing Platform), and qualified using the TapeStation High Sensitivity D1000 ScreenTape (Agilent Technologies). The indexed libraries were further sequenced by Macrogen (Seoul, Republic of Korea) using the NovaSeq platform (Illumina) with 100 bp paired‐end reads. The reads were demultiplexed by barcodes and filtered for an average Phred quality score of at least 30, followed by trimming the flanking consensus sequences using Cutadapt (version 2.3). Peptide sequence populations were analyzed according to the read counts.

[1] = selection against MyD88 TIR, rank by count after grouping
[2] = selection against MyD88 TIR, rank by count before grouping
[3] = 4R selection against MyD88, rank after grouping
[4] = 4R selection against MyD88, rank before grouping
[5] = P8_MyD88: rank by NGS read count after grouping
[6] = P8_MyD88: rank by NGS read count before grouping
[7] = P3_MyD88: rank by count after grouping
[8] = P3_MyD88: rank by count before grouping
[9] = P8_MyD88: rank by count after grouping
[10] = P8_MyD88: rank by count before grouping
[11] = selection against MyD88, rank after grouping
[12] = selection against MyD88, rank before grouping
[13] = selection against MyD88, rank by count after grouping
[14] = selection against MyD88, rank by count before grouping
[15] = P8_MyD88 pool: P8 T-Surf phage library
[16] = P3_MyD88 pool: P3 T-Surf phage library

T1 sequence (Q99836 148-296): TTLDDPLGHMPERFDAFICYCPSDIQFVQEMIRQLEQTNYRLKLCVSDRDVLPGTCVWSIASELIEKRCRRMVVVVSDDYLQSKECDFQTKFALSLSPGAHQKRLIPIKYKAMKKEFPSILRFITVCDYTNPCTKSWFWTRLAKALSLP

YLKWGYPRFWDRQRFP
P3_MyD88 Rank (after) [1]: 282 | P3_MyD88 Rank (before) [2]: 1431

SSFREGLWHLLQLSLK
P3_MyD88 Rank (after) [3]: 584 | P3_MyD88 Rank (before) [4]: 3198

WDFASKMEQFLDRLYY
Rank (after) [5]: 893 | Rank (before) [6]: 1632

DPQDLDWFYERLVAC
Rank (after) [5]: 1005 | Rank (before) [6]: 2779

YTALNNSGFNTFRDND
Rank (after) [7]: 188 | Rank (before) [8]: 1704

WALDLQWFYERLVSLI
Rank (after) [9]: 480 | Rank (before) [10]: 1518

YLKWGYPWFWSKLRYAM
Rank (after) [7]: 110 | Rank (before) [8]: 575

DHHLALPRGKASKPEHLG
P3_MyD88 Rank (after) [11]: 525 | P3_MyD88 Rank (before) [12]: 1994

WVLHKVLQILHAREIY
Rank (after) [5]: 976 | Rank (before) [6]: 1390

PSEVRKQTGSLAKAAL
P3_MyD88 Rank (after) [3]: 593 | P3_MyD88 Rank (before) [4]: 2756

SSFRERLCRLLELSKK
P3_MyD88 Rank (after) [1]: 235 | P3_MyD88 Rank (before) [2]: 3242

DHQLDLPRCKAIKPEILG
P3_MyD88 Rank (after) [11]: 482 | P3_MyD88 Rank (before) [12]: 2062

LEANDSLFWDRLYY
Rank (after) [9]: 403 | Rank (before) [10]: 1189

DPQELEWFYERLLSQM
P8_MyD88 Rank (after) [3]: 620 | P8_MyD88 Rank (before) [4]: 2993

HLLKEFDKKLIPRLK
P3_MyD88 Rank (after) [13]: 685 | P3_MyD88 Rank (before) [14]: 2792

GIFREGLWRLLELSKK
Rank (after) [7]: 105 | Rank (before) [8]: 919

WSLDELLKILYAKETI
P8_MyD88 Rank (after) [11]: 508 | P8_MyD88 Rank (before) [12]: 1386

VSHLIDAFERYGIMFFIDT
P8_MyD88 Rank (after) [11]: 572 | P8_MyD88 Rank (before) [12]: 2260

YPQDLDWFYERLVSQF
P8_MyD88 Rank (after) [13]: 719 | P8_MyD88 Rank (before) [14]: 2097

YLRADELLKILYANETM
Rank (after) [5]: 870 | Rank (before) [6]: 2072

LGYHWTDWEYFVGIEA
Rank (after) [9]: 429 | Rank (before) [10]: 3305

VASHWALEELRMIMDF
Rank (after) [9]: 160 | Rank (before) [10]: 177 | Population [15]: 0.00771%

ELDFSHFWLFDGQAGGAA
Rank (after) [5]: 917 | Rank (before) [6]: 3182

CLLLSVFQTLFARRTE
Rank (after) [5]: 877 | Rank (before) [6]: 1353

LKVEIWLQTLEKAEKP
Rank (after) [7]: 440 | Rank (before) [8]: 2472

WALNELLEIMQAKRDL
P8_MyD88 Rank (after) [1]: 258 | P8_MyD88 Rank (before) [2]: 429

YLEWPLDENQQLIFWF
Rank (after) [9]: 477 | Rank (before) [10]: 1960

LSRVPSVHEFRGFVGV
P3_MyD88 Rank (after) [11]: 573 | P3_MyD88 Rank (before) [12]: 2392

DWVYNELIAHLENTEH
P8_MyD88 Rank (after) [1]: 204 | P8_MyD88 Rank (before) [2]: 306

PQDLEWFYERMVGLIL
Rank (after) [5]: 879 | Rank (before) [6]: 3429

YAFTGHLHRYLVQRAA
Population [16]: 0.0032%

YPQELDWCYERLVSLL
P8_MyD88 Rank (after) [13]: 762 | P8_MyD88 Rank (before) [14]: 2102

WALDELLQILRARDLF
P8_MyD88 Rank (after) [13]: 727 | P8_MyD88 Rank (before) [14]: 1465

EWMREQRRPALKERLP
P3_MyD88 Rank (after) [3]: 599 | P3_MyD88 Rank (before) [4]: 2180

YTALTNSGIHTLRDND
Rank (after) [7]: 174 | Rank (before) [8]: 1691

DPPLLHGLYERLVILF
P8_MyD88 Rank (after) [11]: 485 | P8_MyD88 Rank (before) [12]: 2602

NELVHVWSSKANSLVG
P8_MyD88 Rank (after) [13]: 696 | P8_MyD88 Rank (before) [14]: 3874

DPQDLDWFWVRLIEAL
P8_MyD88 Rank (after) [11]: 493 | P8_MyD88 Rank (before) [12]: 2746

DPQVLEWLYKRLFSQM
P8_MyD88 Rank (after) [13]: 677 | P8_MyD88 Rank (before) [14]: 2648

SSFREGVWRLPEMSTK
P3_MyD88 Rank (after) [3]: 660 | P3_MyD88 Rank (before) [4]: 3149

YNFISHLYDALRLNKIETF
P3_MyD88 Rank (after) [1]: 271 | P3_MyD88 Rank (before) [2]: 896

NQWRNALTAAAHLTGW
P3_MyD88 Rank (after) [13]: 721 | P3_MyD88 Rank (before) [14]: 3494

YASSTWALDELLQIFE
Rank (after) [9]: 124 | Rank (before) [10]: 131 | Population [15]: 0.0135%

NQWRNALIAAVNLSGC
P3_MyD88 Rank (after) [13]: 700 | P3_MyD88 Rank (before) [14]: 3485

LQNQWKLALNKVANLP
Rank (after) [7]: 417 | Rank (before) [8]: 2361

LVAHQISKTIKIFATI
Rank (after) [7]: 389 | Rank (before) [8]: 2314

SSFREGLWRLLGLRKK
P3_MyD88 Rank (after) [11]: 553 | P3_MyD88 Rank (before) [12]: 3165

DHHLDLPRGKAIKPEILGH
P3_MyD88 Rank (after) [11]: 483 | P3_MyD88 Rank (before) [12]: 2026

LKGGDPYFWSKLRYTM
Rank (after) [7]: 159 | Rank (before) [8]: 2531

YLRADDSCSWEKLRYA
P8_MyD88 Rank (after) [13]: 694 | P8_MyD88 Rank (before) [14]: 2043

YLLLSEFHSELALRPL
P8_MyD88 Rank (after) [3]: 637 | P8_MyD88 Rank (before) [4]: 2016

DPQDLDWFYERLVSLFL
Population [15]: 0.02%

AEFWERLRMTVLETME
Rank (after) [9]: 398 | Rank (before) [10]: 1024

SDVDHLTYLVRVRLCR
P8_MyD88 Rank (after) [13]: 728 | P8_MyD88 Rank (before) [14]: 3748

KEVEGWRDALTKVATI
Population [16]: 0.0032%

WFWDKQKYTLPHRYEP
P3_MyD88 Rank (after) [3]: 583 | P3_MyD88 Rank (before) [4]: 1418

SELRVVDDGSVSPLVT
Rank (after) [7]: 182 | Rank (before) [8]: 3029

LGYHWIDWEYFVGIEDPIT
P8_MyD88 Rank (after) [3]: 660 | P8_MyD88 Rank (before) [4]: 3261

DPQGHAWTYERHLSVF
P8_MyD88 Rank (after) [3]: 584 | P8_MyD88 Rank (before) [4]: 2674

DPQERGCQYQRLVGML
Rank (after) [5]: 902 | Rank (before) [6]: 3019

DPQDLDWLYERPVSQF
P8_MyD88 Rank (after) [11]: 552 | P8_MyD88 Rank (before) [12]: 2816

EWLREQLRSARKERLP
Rank (after) [7]: 442 | Rank (before) [8]: 2126

NQWRNALTAAANLV
Population [16]: 0.00378%

DPQDLAWVYERLVSPV
P8_MyD88 Rank (after) [3]: 628 | P8_MyD88 Rank (before) [4]: 2733
